Test results as given in patent publication US20140120087A1, “TRIAZOLOPYRIDINES” (BAYER INTELLECTUAL PROPERTY GMBH, priority 2011, published 2014).

Assays:
[1] = Hydrolytic stability assay at pH 2; type: physicochemical; settings: buffer pH 2, 37° C., compounds of the invention
Summary of the method: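 Compound from a 10 mM DMSO stock was diluted in acetonitrile, added to pH 2 buffer and incubated at 37° C. HPLC injections were made at time zero and after 1, 2 and 24 hrs. Decay (%) was calculated from peak areas relative to the time-zero injection.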

Mps-1 kinase [2] = target: T1, Mps-1 kinase (Homo sapiens, UniProt P33981); assay: Mps-1 kinase assay with 2 mM ATP (TR-FRET)
T1 sequence (P33981 1-857): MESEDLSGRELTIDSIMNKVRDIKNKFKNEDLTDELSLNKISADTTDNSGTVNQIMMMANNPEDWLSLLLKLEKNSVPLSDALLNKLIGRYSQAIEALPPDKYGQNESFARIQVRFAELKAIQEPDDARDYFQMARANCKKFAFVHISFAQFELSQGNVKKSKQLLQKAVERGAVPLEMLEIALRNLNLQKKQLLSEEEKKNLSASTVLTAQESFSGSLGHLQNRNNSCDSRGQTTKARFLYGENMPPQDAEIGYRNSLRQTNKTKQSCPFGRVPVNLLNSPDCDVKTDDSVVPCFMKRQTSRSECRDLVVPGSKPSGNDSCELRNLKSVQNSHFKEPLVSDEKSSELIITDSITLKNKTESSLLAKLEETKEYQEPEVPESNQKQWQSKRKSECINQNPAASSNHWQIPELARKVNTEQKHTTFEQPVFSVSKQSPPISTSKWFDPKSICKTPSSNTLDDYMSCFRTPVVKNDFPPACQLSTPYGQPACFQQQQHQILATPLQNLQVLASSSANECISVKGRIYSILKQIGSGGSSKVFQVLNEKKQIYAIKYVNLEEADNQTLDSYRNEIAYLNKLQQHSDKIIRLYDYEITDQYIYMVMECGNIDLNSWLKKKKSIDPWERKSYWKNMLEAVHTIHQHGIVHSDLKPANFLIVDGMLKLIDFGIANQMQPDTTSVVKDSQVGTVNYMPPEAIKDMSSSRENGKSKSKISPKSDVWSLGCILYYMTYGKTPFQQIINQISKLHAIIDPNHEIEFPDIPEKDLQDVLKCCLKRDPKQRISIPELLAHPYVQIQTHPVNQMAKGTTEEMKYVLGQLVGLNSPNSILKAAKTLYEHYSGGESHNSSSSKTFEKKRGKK

Mps-1 kinase [3] = target: T1, Mps-1 kinase; assay: Mps-1 kinase assay with 10 μM ATP (TR-FRET)

| Hydrolysis at pH 2; Decay in % after 24 h [1] [%] | IC50 (Mps-1 kinase [2]) [nM] | IC50 (Mps-1 kinase [3]) [nM] | SMILES |
| --- | --- | --- | --- |
| <10 | 3.8 | ≤ 1 | COc1ccc(Nc2nc3ccc(-c4ccc(C(=O)NCc5ccc(F)cc5)cc4)cn3n2)c(OC)c1 [Example 02.16, 4-{2-[(2,4-dimethoxyphenyl)amino][1,2,4]triazolo[1,5-α]pyridin-6-yl}-N-(4-fluorobenzyl)benzamide] |
| <10 | 4.6 | ≤ 1 | COc1cc(C(=O)NCC(F)(F)F)ccc1Nc1nc2ccc(-c3ccc(C(=O)NCc4ccc(F)cc4)cc3)cn2n1 [Example 02.17, 4-[(6-{4-[(4-fluorobenzyl)carbamoyl]phenyl}[1,2,4]triazolo[1,5-α]pyridin-2-yl)amino]-3-methoxy-N-(2,2,2-trifluoroethyl)benzamide] |
| <10 | ≤ 1 | ≤ 1 | CC(C)(CO)NC(=O)c1ccc(Nc2nc3ccc(-c4ccc(C(=O)NCc5ccc(F)cc5)cc4)cn3n2)c(OCC(F)(F)F)c1 [Example 02.18, 4-[(6-{4-[(4-fluorobenzyl)carbamoyl]phenyl}[1,2,4]triazolo[1,5-α]pyridin-2-yl)amino]-N-(1-hydroxy-2-methylpropan-2-yl)-3-(2,2,2-trifluoroethoxy)-benzamide] |
| <10 | ≤ 1 | ≤ 1 | CCOc1cc(C(=O)NCCS(C)(=O)=O)ccc1Nc1nc2ccc(-c3ccc(C(=O)NCc4ccc(F)cc4)cc3)cn2n1 [Example 02.19, 3-ethoxy-4-[(6-{4-[(4-fluorobenzyl)carbamoyl]phenyl}[1,2,4]triazolo[1,5-α]pyridin-2-yl)amino]-N-[2-(methylsulfonyl)ethyl]benzamide] |
| <10 | 1.7 | ≤ 1 | CCNC(=O)c1ccc(Nc2nc3ccc(-c4ccc(C(=O)NCc5ccc(F)cc5)cc4)cn3n2)c(OC)c1 [Example 02.20, N-ethyl-4-[(6-{4-[(4-fluorobenzyl)carbamoyl]phenyl}[1,2,4]triazolo[1,5-α]-pyridin-2-yl)amino]-3-methoxybenzamide] |
| <10 | 2.4 | ≤ 1 | CCOc1cc(C(=O)NC(C)(C)C)ccc1Nc1nc2ccc(-c3ccc(C(=O)NCc4ccc(F)cc4)cc3)cn2n1 [Example 02.21, N-tert-butyl-3-ethoxy-4-[(6-{4-[(4-fluorobenzyl)carbamoyl]phenyl}[1,2,4]-triazolo[1,5-α]pyridin-2-yl)amino]benzamide] |
| <10 | ≤ 1 | ≤ 1 | CC(C)(O)CNC(=O)c1ccc(Nc2nc3ccc(-c4ccc(C(=O)NCc5ccc(F)cc5)cc4)cn3n2)c(OCC(F)(F)F)c1 [Example 02.22, 4-[(6-{4-[(4-fluorobenzyl)carbamoyl]phenyl}[1,2,4]triazolo[1,5-α]pyridin-2-yl)amino]-N-(2-hydroxy-2-methylpropyl)-3-(2,2,2-trifluoroethoxy)benzamide] |
| <10 | ≤ 1 | ≤ 1 | O=C(NCc1ccc(F)cc1)c1ccc(-c2ccc3nc(Nc4ccc(C(=O)NCC(F)(F)F)cc4OCC(F)(F)F)nn3c2)cc1 [Example 02.23, 4-[(6-{4-[(4-fluorobenzyl)carbamoyl]phenyl}[1,2,4]triazolo[1,5-α]pyridin-2-yl)amino]-3-(2,2,2-trifluoroethoxy)-N-(2,2,2-trifluoroethyl)benzamide] |
| <10 | 5.9 | ≤ 1 | Cc1cc(N(C)C)ccc1Nc1nc2ccc(-c3ccc(C(=O)NCc4ccc(F)cc4)cc3)cn2n1 [Example 02.24, 4-(2-{[4-(dimethylamino)-2-methylphenyl]amino}[1,2,4]triazolo[1,5-α]-pyridin-6-yl)-N-(4-fluorobenzyl)benzamide] |
| <10 | 6.9 | ≤ 1 | COc1cc(C(=O)NC(C)(C)CO)ccc1Nc1nc2ccc(-c3ccc(C(=O)NCc4ccc(F)cc4)c(F)c3)cn2n1 [Example 03.1, 2-fluoro-N-(4-fluorobenzyl)-4-[2-({4-[(1-hydroxy-2-methylpropan-2-yl)-carbamoyl]-2-methoxyphenyl}amino)[1,2,4]triazolo[1,5-α]pyridin-6-yl]-benzamide] |
| <10 | 16 | ≤ 1 | COc1cc(C(=O)NC(C)(C)CO)ccc1Nc1nc2ccc(-c3ccc(C(=O)NCc4ccc(F)cc4)c(C)c3)cn2n1 [Example 04.1, N-(4-fluorobenzyl)-4-[2-({4-[(1-hydroxy-2-methylpropan-2-yl)carbamoyl]-2-methoxyphenyl}amino)[1,2,4]triazolo[1,5-α]pyridin-6-yl]-2-methylbenz-amide] |
| <10 | 26 | 1.4 | CCOc1cc(C(=O)N(CC)CCOC)ccc1Nc1nc2ccc(-c3ccc(C(=O)NCC4CC4)cc3)cn2n1 [Example 06.2, 4-[(6-{4-[(cyclopropylmethyl)carbamoyl]phenyl}[1,2,4]triazolo[1,5-α]-pyridin-2-yl)amino]-3-ethoxy-N-ethyl-N-(2-methoxyethyl)benzamide] |
| <10 | 21 | ≤ 1 | CCOc1cc(C(=O)NCCO)ccc1Nc1nc2ccc(-c3ccc(C(=O)NCC4CC4)cc3)cn2n1 [Example 06.3, 4-[(6-{4-[(cyclopropylmethyl)carbamoyl]phenyl}[1,2,4]triazolo[1,5-α]-pyridin-2-yl)amino]-3-ethoxy-N-(2-hydroxyethyl)benzamide] |
| <10 | 11 | ≤ 1 | O=C(NCCO)c1ccc(Nc2nc3ccc(-c4ccc(C(=O)NCC5CC5)cc4)cn3n2)c(OCC(F)(F)F)c1 [Example 06.4, 4-[(6-{4-[(cyclopropylmethyl)carbamoyl]phenyl}[1,2,4]triazolo[1,5-α]-pyridin-2-yl)amino]-N-(2-hydroxyethyl)-3-(2,2,2-trifluoroethoxy)benzamide] |
| <10 | 19 | ≤ 1 | CCNC(=O)c1ccc(Nc2nc3ccc(-c4ccc(C(=O)NCC5CC5)cc4)cn3n2)c(OCC(F)(F)F)c1 [Example 06.5, 4-[(6-{4-[(cyclopropylmethyl)carbamoyl]phenyl}[1,2,4]triazolo[1,5-α]-pyridin-2-yl)amino]-N-ethyl-3-(2,2,2-trifluoroethoxy)benzamide] |
| <10 | 14 | ≤ 1 | CCNC(=O)c1ccc(Nc2nc3ccc(-c4ccc(C(=O)NCc5cccc(F)c5)cc4)cn3n2)c(OC)c1 [Example 07.1, N-ethyl-4-[(6-{4-[(3-fluorobenzyl)carbamoyl]phenyl}[1,2,4]triazolo[1,5-α]-pyridin-2-yl)amino]-3-methoxybenzamide] |
| <10 | 4.3 | ≤ 1 | COc1cc(C(=O)NC(C)(C)CO)ccc1Nc1nc2ccc(-c3ccc(C(=O)NCc4ccc(F)cc4)c(OC)c3)cn2n1 [Example 08.1, N-(4-fluorobenzyl)-4-[2-({4-[(1-hydroxy-2-methylpropan-2-yl)carbamoyl]-2-methoxyphenyl}amino)[1,2,4]triazolo[1,5-α]pyridin-6-yl]-2-methoxybenz-amide] |
